Experimental findings from patent US12421206B2, “Aryl-n-aryl derivatives for treating a RNA virus infection” (ABIVAX, priority 2018, dated 2025) are described below.

By IC50 is commonly meant the midpoint of a concentration-inhibition curve. The inhibition is how much of the control response was suppressed.

The subject of experiment [1] is Chikungunya Virus (CHIKV) strain LR2006-OPY1 with GFP modification (CHIK 5'LR). The experiment is described as follows: microbe, parasite or virus in culture. The format is cell-based. The note with it: HEK-293T, infected HEK293T cells; for IC50: second round of experiments, range stated for listed compounds, read-out: IC50 (CHIKV inhibition); for inhibition at 1 µM: compounds at 1 μM, MOI 0.1, 22 h, mean of 2 experiments, values above 100 lowered to 100, read-out: % CHIKV Inhibition Mean (n = 2). Here is the method:
The ability of the compounds to inhibit viral replication was assessed with an experiment in which infected cells were treated by compounds of formula (Ie) at 1 μM. As a positive control for inhibition of Chikungunya, Ribavirin was used. Toxicity of the compounds was assessed in parallel.
Human embryonic kidney cells 293T (HEK293T, CRL-11268) were maintained in Dulbecco's modified Eagle's Medium (DMEM, 31966-021, Thermo Fisher Scientific) supplemented with 10% of fetal bovine serum (FBS), penicillin and streptomycin. After removal of the medium, cells were washed with Ca^2+ and Mg^2+-free salt solution to remove all traces of serum. After aspiration of wash solution, cells were dissociated with 0.25% Trypsin-EDTA solution and incubated 30 s at least in 37° C. incubator. Concentration of cell suspension was determined by an automatic cell counter (EVE, NanoEntek) and, if needed, adjusted to 0.33×10^6 cells/mL with DMEM medium supplemented with 10% FBS.
100 μL of the cell suspension were dispatched in a ViewPlate-96 Black (6005182, PerkinElmer) and in a transparent 96-well cell culture plate (655180, Greiner bio-one). After an incubation for 24 h at 37° C. under 5% of CO2, compounds were added at the proper concentration.
An intermediate dilution was prepared with DMSO (D8418, Sigma) at 2 mM in a 96-well V-bottom microplate from the stock solution:
Mix 1 μL of the 50 mM stock library in 25 μL of DMSO.
Mix 2 μL of the 25 mM stock library in 25 μL of DMSO.
An intermediate dilution was prepared with DMSO (D8418, Sigma) at 25 mM in a 96-well V-bottom microplate from the stock solution:
Mix 2 μL of the 50 mM stock library in 2 μL of DMSO.
Perform serial dilution in 2 μL of DMSO 13 times to reach 0.0015 mM. Proceed as follows in table III:
For both screen and determination of IC50, 1 μL of each solution was added in a 1 mL Masterblock 96 wells (Greiner bio-one, 780261) containing 1 mL of DMEM medium. As a positive control, 5 μL of a 80 mM Ribavirin solution (R9644, Sigma) is added to 1 mL of DMEM. On the other hand, DMSO is used as a negative control.
[…]. Vector Borne Zoonotic Dis. 2006; 6(4)). This modified virus was used to infect cells at MOI 0.1. […].
Medium was removed after 22 h at 37° C. under 5% of CO2 and cells were washed as described above. 60 μL of RIPA buffer (50 mM Tris-HCl pH8, 100 mM NaCl, 1 mM MgCl2, 1% Triton X-100) was added to cells and incubated for at least 20 min before reading fluorescence signal. Pierce 660 nm Protein Assay Reagent (22660, Thermo scientific) was used to normalize fluorescence signal by protein quantity.
• A first round of experiments has been performed wherein the results are expressed as inhibition percentage, which is calculated as follows, through the following steps: • 1. Fluorescence intensity (FI)/Absorbance 660 nm (A660)=A
This ratio allows considering the infection (GFP virus) to the protein amount. • 2. A′=A−background noise of non-infected plate, • 3. B=Fluorescence intensity (FI)/Absorbance 660 nm (A660) of infected but non treated plates, • 4. C=A′/B, which is then converted as the percentage of infection after treatment, compared to non-treated sample, and subsequently as the infection percentage. For instance, a value of 100 in Table IV here below means that, after treatment, the signal attributed to GFP fluorescence is abolished, which is correlated to the absence of infection. • 5. C′=100−C
This value corresponds to the inhibition's percentage.
The following Table IV encompasses said C′ value for some compounds, as calculated above with a mean of 2 experiments, and corresponding standard deviation.
Some values were originally above 100. In these cases, the value has been lowered to 100. This means that some molecules also have an impact on the viability of the cells. In other words, the A value may be lower than the background noise.
Moreover, for each measure, the test was performed with Ribavirin as control. The value of the inhibition percentage was checked, giving 100%.

The subject of the next experiment is DENV-2 strain 16681. The experiment is described as follows: DENV-2 inhibition (cytopathic effect inhibition) using Viral ToxGlo assay in A549 cells. The format is cell-based, Dengue 2 virus. The note with it: Dengue virus, DENV2, 120 h, compounds at 10 μM, MOI 0.5, 5 days p.i., read-out: % DENV-2 Inhibition Mean (n = 3). For orientation: Protection from cytopathic effect is a common read-out in antiviral testing.

Consider `Cc1cc(OCc2ccccn2)ccc1Nc1cccc(NC(=O)NCCC(C)C)c1` [Compound 68, 1-isopentyl-3-(3-((2-methyl-4-(pyridin-2-ylmethoxy)phenyl)amino)phenyl)urea], for which, in experiment [1], the half-inhibitory concentration (IC50) fell in the range of 1 to 400 nM. In the experiment on DENV-2 strain 16681, the inhibition at 10 µM was 70%.

With `CCCC(C)NC(=O)c1cccc(Nc2ccc(OCc3ccccn3)cc2)c1` (stereo not shown) [Compound 64, N-(pentan-2-yl)-3-((4-(pyridin-2-ylmethoxy)phenyl)amino)benzamide], the IC50 in experiment [1] was 1 to 400 nM. The inhibition at 10 µM in the experiment with DENV-2 strain 16681 was found to be 93%.

On to `Cc1cc(OCc2ccccn2)ccc1Nc1cccc(C(=O)NCCC2CCC2)c1` [Compound 46, N-(2-cyclobutylethyl)-3-((2-methyl-4-(pyridin-2-ylmethoxy)phenyl)amino)benzamide], for which the inhibition at 1 µM in experiment [1] is 99%. The inhibition at 10 µM in the experiment on DENV-2 strain 16681 is 71%.

Turning to `Cc1cc(OCc2ccccn2)ccc1Nc1cccc(C(=O)NCCC2CC2)c1` [Compound 45, N-(2-cyclopropylethyl)-3-((2-methyl-4-(pyridin-2-ylmethoxy)phenyl)amino)benzamide], the inhibition at 1 µM in experiment [1] worked out at 99%. Further, the inhibition at 10 µM in the experiment on DENV-2 strain 16681 came to 89%.

As for `O=C(NCCC1CCCCC1)c1cccc(Nc2ccc(OCc3ccccn3)cc2)c1` [Compound 38, N-(2-cyclohexylethyl)-3-((4-(pyridin-2-ylmethoxy)phenyl)amino)benzamide], the inhibition at 1 µM in experiment [1] came to 99%. Also, in the experiment on DENV-2 strain 16681, the inhibition at 10 µM worked out at 65%.
